# Assay results as given in patent US20220162192A1 (ESCAPE Bio, Inc., priority 2019, published 2022).
# How the values were obtained:
# [1] = target: T1, Recombinant G2019S-LRRK2 protein (Homo sapiens, UniProt Q5S007, G2019S); assay: LanthaScreen Kinase Activity Assay (TR-FRET), G2019S-LRRK2; type: biochemical; details: class symbols; 25 μM ATP, 400 nM LRRKtide, 2.9 nM kinase, 60 min at room temperature
# T1 construct: purchased Life Technologies PV4881
# Procedure: (§1) LRRK2 kinase activity was measured using a LanthaScreen™ Kinase Activity Assay from ThermoFisher Scientific. Recombinant wild type or G2019S-LRRK2 protein (Life Technologies, PR8604B or PV4881, respectively), was incubated with a fluorescein-labeled peptide substrate called LRRKtide that is based upon ezrin/radixin/moesin (ERM) (Life Technologies, PV4901) in the presence of ATP and serially diluted compound. After an incubation period of 1 hr, the phosphotransferase activity was stopped and a terbium-labelled anti-pERM antibody (Life Technologies, PV4899) was added to detect the phosphorylation of LRRKtide by measuring the time resolved-Forster resonant energy transfer (TR-FRET) signal from the terbium label on the antibody to the fluorescein tag on LRRKtide, expressed as the 520 nm/495 nm emission ratio. Compound-dependent inhibition of the TR-FRET signal was used to generate a concentration-response curve for IC50 determination.
# (§2) The assay was carried out under the following protocol conditions: 1 mM compound in DMSO was serially diluted 1:3, 11 points in DMSO with a Biomek FX and 0.1 μL of the diluted compound was subsequently stamped into the assay plate (384-well format Lumitrac 200, Greiner, 781075) with an Echo Labcyte such that the final compound concentration in the assay was 10 μM to […]. Subsequently, 5 μL of 2× kinase solution (2.9 nM final concentration) was added to the assay plate in assay buffer composed of 50 mM Tris pH 8.5 (Sigma, T6791), 5 mM MgCl2 (Fluka, 63020), 1 mM EGTA (Sigma, E3889), 0.01% BRIJ-35 (Sigma, P1254) and 2 mM DTT. The reaction was started by addition of 2×ATP/LRRKtide solution in assay buffer such that the final concentration was 400 nM LRRKtide and 25 μM ATP. After 60 min incubation at room temperature, the reaction was stopped by addition of […] containing a final concentration of 2 nM anti-pERM antibody and 10 mM EDTA. After a 30 min incubation at RT, the TR-FRET signal was measured on a Wallac 2104 EnVision® multilabel reader at an excitation wavelength of 340 nm and reading emission at 520 nm and 495 nm. The ratio of the 520 nm and 495 nm emission was used to analyze the data.
# [2] = target: T2, Recombinant wild type LRRK2 protein (Homo sapiens, UniProt Q5S007); assay: LanthaScreen Kinase Activity Assay (TR-FRET), wild type LRRK2; type: biochemical; details: class symbols; 25 μM ATP, 400 nM LRRKtide, 2.9 nM kinase, 60 min at room temperature; read-out: LRRK2 WT IC50
# T2 construct: purchased Life Technologies PR8604B
# T2 sequence (Q5S007 whole entry): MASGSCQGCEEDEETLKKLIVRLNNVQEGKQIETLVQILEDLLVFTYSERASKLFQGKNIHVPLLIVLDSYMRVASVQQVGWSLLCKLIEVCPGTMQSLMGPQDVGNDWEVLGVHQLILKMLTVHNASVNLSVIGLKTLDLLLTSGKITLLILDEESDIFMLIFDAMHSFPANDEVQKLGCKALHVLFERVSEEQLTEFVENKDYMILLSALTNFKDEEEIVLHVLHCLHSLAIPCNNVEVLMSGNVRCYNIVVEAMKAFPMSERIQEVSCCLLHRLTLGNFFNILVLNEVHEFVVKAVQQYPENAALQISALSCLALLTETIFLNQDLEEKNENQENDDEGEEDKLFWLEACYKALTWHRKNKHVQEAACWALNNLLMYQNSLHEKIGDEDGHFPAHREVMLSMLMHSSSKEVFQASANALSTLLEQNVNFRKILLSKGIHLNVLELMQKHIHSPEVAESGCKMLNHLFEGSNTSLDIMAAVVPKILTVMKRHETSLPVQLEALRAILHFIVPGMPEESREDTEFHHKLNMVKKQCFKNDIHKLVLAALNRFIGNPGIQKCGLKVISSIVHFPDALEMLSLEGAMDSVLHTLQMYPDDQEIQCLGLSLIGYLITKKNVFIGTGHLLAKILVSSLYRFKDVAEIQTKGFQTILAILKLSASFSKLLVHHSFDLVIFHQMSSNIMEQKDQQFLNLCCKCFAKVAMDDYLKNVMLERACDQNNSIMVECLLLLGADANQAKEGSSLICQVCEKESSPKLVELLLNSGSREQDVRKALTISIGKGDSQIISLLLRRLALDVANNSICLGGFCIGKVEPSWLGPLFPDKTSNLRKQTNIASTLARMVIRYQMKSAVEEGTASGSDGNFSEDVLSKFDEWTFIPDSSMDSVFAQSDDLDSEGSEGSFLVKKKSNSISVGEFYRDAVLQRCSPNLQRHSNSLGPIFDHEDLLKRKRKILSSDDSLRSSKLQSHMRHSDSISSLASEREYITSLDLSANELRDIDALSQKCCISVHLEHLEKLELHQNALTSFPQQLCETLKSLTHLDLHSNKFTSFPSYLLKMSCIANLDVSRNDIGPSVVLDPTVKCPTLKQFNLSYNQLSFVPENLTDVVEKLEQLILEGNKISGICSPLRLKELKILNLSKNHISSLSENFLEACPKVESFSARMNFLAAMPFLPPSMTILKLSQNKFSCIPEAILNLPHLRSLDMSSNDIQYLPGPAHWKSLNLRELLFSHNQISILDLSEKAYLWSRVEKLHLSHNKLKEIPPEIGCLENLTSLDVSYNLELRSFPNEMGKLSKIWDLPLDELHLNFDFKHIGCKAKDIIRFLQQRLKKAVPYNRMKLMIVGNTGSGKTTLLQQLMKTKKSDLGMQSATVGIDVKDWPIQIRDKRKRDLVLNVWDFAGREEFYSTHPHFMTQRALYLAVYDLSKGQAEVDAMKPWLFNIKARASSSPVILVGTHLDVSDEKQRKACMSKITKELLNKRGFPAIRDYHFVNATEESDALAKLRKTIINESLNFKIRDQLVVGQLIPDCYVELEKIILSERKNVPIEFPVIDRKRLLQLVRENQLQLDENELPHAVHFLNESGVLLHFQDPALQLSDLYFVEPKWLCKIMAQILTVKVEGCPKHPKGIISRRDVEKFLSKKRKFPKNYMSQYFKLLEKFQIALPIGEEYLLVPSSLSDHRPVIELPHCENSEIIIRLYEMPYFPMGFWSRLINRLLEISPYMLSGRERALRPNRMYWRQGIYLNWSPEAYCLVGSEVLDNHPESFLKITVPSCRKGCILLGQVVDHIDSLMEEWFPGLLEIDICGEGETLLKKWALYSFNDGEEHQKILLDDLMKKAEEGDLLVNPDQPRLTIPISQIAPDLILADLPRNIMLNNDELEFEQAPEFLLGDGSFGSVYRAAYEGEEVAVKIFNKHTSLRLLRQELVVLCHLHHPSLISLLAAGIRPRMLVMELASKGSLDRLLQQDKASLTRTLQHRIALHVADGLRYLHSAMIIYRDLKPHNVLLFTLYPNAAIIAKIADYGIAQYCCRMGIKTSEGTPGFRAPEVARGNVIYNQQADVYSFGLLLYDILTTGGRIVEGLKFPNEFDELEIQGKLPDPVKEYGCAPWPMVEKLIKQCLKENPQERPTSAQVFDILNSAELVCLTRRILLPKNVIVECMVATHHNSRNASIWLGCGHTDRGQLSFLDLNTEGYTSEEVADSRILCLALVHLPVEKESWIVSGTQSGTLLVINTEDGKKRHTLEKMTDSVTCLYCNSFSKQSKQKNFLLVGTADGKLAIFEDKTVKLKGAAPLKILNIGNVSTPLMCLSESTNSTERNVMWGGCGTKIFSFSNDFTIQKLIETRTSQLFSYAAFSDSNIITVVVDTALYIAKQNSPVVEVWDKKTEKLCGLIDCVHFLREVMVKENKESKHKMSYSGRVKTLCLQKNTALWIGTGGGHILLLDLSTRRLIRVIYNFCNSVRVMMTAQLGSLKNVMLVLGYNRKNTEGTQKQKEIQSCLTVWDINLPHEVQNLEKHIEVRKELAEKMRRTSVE
# Procedure: as §1, §2
# T1 sequence (Q5S007 whole entry G2019S): as the sequence (Q5S007 whole entry) above, with G2019S counted along it
Compound,IC50 [1],IC50 [2]
"Cc1oncc1-c1n[nH]c2ccc(NC(=O)c3c(F)cc4c(cnn4C)c3F)cc12 [Example 29, 4,6-Difluoro-1-methyl-N-(3-(5-methylisoxazol-4-yl)-1H-indazol-5-yl)-1H-indazole-5-carboxamide]",≤ 100 nM,100 to 1000 nM
"O=C(Nc1ccc2[nH]nc(-c3ccoc3)c2c1)C1CCc2cncn2C1 (single isomer, unassigned) [Example 173a]",≤ 100 nM,100 to 1000 nM
"Cn1ncc2c(F)c(C(=O)Nc3ccc4[nH]nc(-c5cncnc5)c4c3)c(F)cc21 [Example 34, 4,6-Difluoro-1-methyl-N-(3-(pyrimidin-5-yl)-1H-indazol-5-yl)-1H-indazole-5-carboxamide]",≤ 100 nM,100 to 1000 nM
"CN(C)c1ccc(-c2n[nH]c3ccc(NC(=O)c4c(F)cc5c(cnn5C)c4F)cc23)cc1 [Example 87, N-(3-(4-(Dimethylamino)phenyl)-1H-indazol-5-yl)-4,6-difluoro-1-methyl-1H-indazole-5-carboxamide]",≤ 100 nM,≤ 100 nM
"Cn1ncc2c(F)c(C(=O)Nc3ccc4[nH]nc(-c5ccncn5)c4c3)c(F)cc21 [Example 73, 4,6-Difluoro-1-methyl-N-(3-(pyrimidin-4-yl)-1H-indazol-5-yl)-1H-indazole-5-carboxamide]",≤ 100 nM,≤ 100 nM
"Cc1cnccc1-c1n[nH]c2ccc(NC(=O)c3c(F)cc4c(cnn4C)c3F)cc12 [Example 40, 4,6-Difluoro-1-methyl-N-(3-(3-methylpyridin-4-yl)-1H-indazol-5-yl)-1H-indazole-5-carboxamide]",100 to 1000 nM,1000 to 10000 nM
"Cn1ncc2c(F)c(C(=O)Nc3ccc4[nH]nc(-c5ccno5)c4c3)c(F)cc21 [Example 137, 4,6-Difluoro-N-(3-(isoxazol-5-yl)-1H-indazol-5-yl)-1-methyl-1H-indazole-5-carboxamide]",≤ 100 nM,≤ 100 nM
"Cn1ncc2c(F)c(C(=O)Nc3ccc4[nH]nc(-c5ccccc5)c4c3)c(F)cc21 [Example 50, 4,6-Difluoro-1-methyl-N-(3-phenyl-1H-indazol-5-yl)-1H-indazole-5-carboxamide]",≤ 100 nM,100 to 1000 nM
"O=C(Nc1ccc2[nH]nc(-c3ccccc3)c2c1)c1c(Cl)cn2cnnc2c1Cl [Example 63, 6,8-dichloro-N-(3-phenyl-1H-indazol-5-yl)-[1,2,4]triazolo[4,3-a]pyridine-7-carboxamide]",≤ 100 nM,≤ 100 nM
"Cn1ncc2c(F)c(C(=O)Nc3ccc4[nH]nc(-c5ccoc5)c4c3)c(F)cc21 [Example 28, 4,6-Difluoro-N-(3-(furan-3-yl)-1H-indazol-5-yl)-1-methyl-1H-indazole-5-carboxamide]",≤ 100 nM,≤ 100 nM
"Cc1cc(-c2n[nH]c3ccc(NC(=O)c4c(F)cc5c(cnn5C)c4F)cc23)n(C)n1 [Example 79, N-(3-(1,3-Dimethyl-1H-pyrazol-5-yl)-1H-indazol-5-yl)-4,6-difluoro-1-methyl-1H-indazole-5-carboxamide]",100 to 1000 nM,1000 to 10000 nM
"Cn1ncc2c(F)c(C(=O)Nc3ccc4[nH]nc(-c5ccon5)c4c3)c(F)cc21 [Example 135, 4,6-Difluoro-N-(3-(isoxazol-3-yl)-1H-indazol-5-yl)-1-methyl-1H-indazole-5-carboxamide]",≤ 100 nM,≤ 100 nM
"O=C(Nc1ccc2[nH]nc(-c3ccoc3)c2c1)C1CCc2nncn2C1 (single isomer, unassigned) [Example 162b]",≤ 100 nM,100 to 1000 nM

# More lines, now with the values ahead:
IC50 [1],IC50 [2],Compound
≤ 100 nM,100 to 1000 nM,"O=C(Nc1ccc2[nH]nc(-c3ccoc3)c2c1)c1ccc2ncoc2c1 [Example 116, N-(3-(furan-3-yl)-1H-indazol-5-yl)benzo[d]oxazole-6-carboxamide]"
≤ 100 nM,≤ 100 nM,"Cc1c(C(=O)Nc2ccc3[nH]nc(-c4ccccc4)c3c2)ccn2nncc12 [Example 149, 4-Methyl-N-(3-phenyl-1H-indazol-5-yl)-[1,2,3]triazolo[1,5-a]pyridine-5-carboxamide]"
1000 to 10000 nM,1000 to 10000 nM,"Cc1n[nH]c2ccc(NC(=O)c3ccc4nn[nH]c4c3)cc12 [Example 9, N-(3-Methyl-1H-indazol-5-yl)-1H-benzo[d][1,2,3]triazole-6-carboxamide]"
≤ 100 nM,100 to 1000 nM,"Cc1cc2cnnn2c(C)c1C(=O)Nc1ccc2[nH]nc(-c3ccccc3F)c2c1 [Example 44, N-(3-(2-Fluorophenyl)-1H-indazol-5-yl)-5,7-dimethyl-[1,2,3]triazolo[1,5-a]pyridine-6-carboxamide]"
≤ 100 nM,100 to 1000 nM,"Cc1nc2ccc(C(=O)Nc3ccc4[nH]nc(-c5ccoc5)c4c3)cc2o1 [Example 134, N-(3-(Furan-3-yl)-1H-indazol-5-yl)-2-methylbenzo[d]oxazole-6-carboxamide]"
≤ 100 nM,≤ 100 nM,"O=C(Nc1ccc2[nH]nc(-c3ccoc3)c2c1)c1ccc2ncsc2n1 [Example 122, N-(3-(Furan-3-yl)-1H-indazol-5-yl)thiazolo[5,4-b]pyridine-5-carboxamide]"
≤ 100 nM,100 to 1000 nM,"Cc1cc2[nH]cnc2cc1C(=O)Nc1ccc2[nH]nc(-c3ccccc3)c2c1 [Example 19, 6-Methyl-N-(3-phenyl-1H-indazol-5-yl)-1H-benzo[d]imidazole-5-carboxamide]"
≤ 100 nM,100 to 1000 nM,"Cc1cc2cncn2cc1C(=O)Nc1ccc2[nH]nc(C)c2c1 [Example 145, 7-Methyl-N-(3-methyl-1H-indazol-5-yl)imidazo[1,5-a]pyridine-6-carboxamide]"
≤ 100 nM,≤ 100 nM,"Cc1cc2cn[nH]c2cc1C(=O)Nc1ccc2[nH]nc(-c3ccccc3)c2c1 [Example 23, 5-Methyl-N-(3-phenyl-1H-indazol-5-yl)-1H-indazole-6-carboxamide]"
100 to 1000 nM,1000 to 10000 nM,"Cc1cn2cnnc2c(C)c1C(=O)Nc1ccc2[nH]nc(C)c2c1 [Example 58, 6,8-Dimethyl-N-(3-methyl-1H-indazol-5-yl)-[1,2,4]triazolo[4,3-a]pyridine-7-carboxamide]"
≤ 100 nM,100 to 1000 nM,Cc1cc2nn[nH]c2cc1C(=O)Nc1ccc2[nH]nc(-c3ccncc3)c2c1 [Example 1]
100 to 1000 nM,100 to 1000 nM,"O=C(Nc1ccc2[nH]nc(-c3ccoc3)c2c1)c1ccc2scnc2c1 [Example 124, N-(3-(Furan-3-yl)-1H-indazol-5-yl)benzo[d]thiazole-5-carboxamide]"
≤ 100 nM,100 to 1000 nM,"O=C(Nc1ccc2[nH]nc(-c3ccoc3)c2c1)c1ccc2ocnc2c1 [Example 126, N-(3-(Furan-3-yl)-1H-indazol-5-yl)benzo[d]oxazole-5-carboxamide]"
≤ 100 nM,≤ 100 nM,"Cc1c(C(=O)Nc2ccc3[nH]nc(-c4ccccc4)c3c2)c(Cl)cn2cnnc12 [Example 59, 6-Chloro-8-methyl-N-(3-phenyl-1H-indazol-5-yl)-[1,2,4]triazolo[4,3-a]pyridine-7-carboxamide]"
≤ 100 nM,100 to 1000 nM,"Cn1cc2nc(C(=O)Nc3ccc4[nH]nc(-c5cnco5)c4c3)ccc2n1 [Example 166, 2-Methyl-N-(3-(oxazol-5-yl)-1H-indazol-5-yl)-2H-pyrazolo[4,3-b]pyridine-5-carboxamide]"
